Values quoted from earlier work in US10953063B2, “Method of treating select cancers using timed administration of plant extract from species Physalis pubescens and Hedyotis diffusa willd” (priority 2018, dated 2021).

System: human leukemia cells
Settings: research findings

For `Cc1cc2c(cc1O)C(=O)c1ccccc1C2=O` [2-Hydroxy-3-Methylanthraguinone], the “apoptosis in human leukemia cells” value is listed as “induces apoptosis”.
